Where “and” joins values, the source holds several entries; their conditions need not be identical. Equal values may be shown once.
Key:
[1] = test system: PIV5-GFP; experiment: PIV5-GFP viral GFP expression in Hs27 cells by flow cytometry; type: cell-based, parainfluenza virus 5; details: for GFP-positive cells, chalcone added at 0 or 6 hpi: 10 µM added at 0 (or 6) hpi, DMSO ~80%; for Effect on number of GFP-positive cells, chalcone added at 18 hpi: 10 µM added at 18 hpi; for GFP-positive cells: 10 µM chalcone 24 h before infection and after, DMSO control ~80-82% GFP+; for Ability to reduce viral GFP expression (Figure 4B screen): 10 µM chalcone before and after infection; for Inhibition of GFP expression, pre-infection treatment only: 10 µM for 24 h before infection, media lacking chalcone after; for GFP-positive cells, virus spread, chalcone added at 0 and 24 hpi: 10 µM added at 0 and 24 hpi, DMSO nearly 60%; for Inhibition of virus spread, chalcone added at 48 and 72 hpi: 10 µM added at 48 and 72 hpi; for % GFP relative to DMSO treated (10 µM): Hs27 cells infected with PIV5-GFP
Description: Parainfluenza virus 5 (PIV5) expressing green fluorescence protein (GFP) was derived from cDNA, grown at 37 °C in Madin–Darby bovine kidney (MDBK) cells and titered on CV-1 (African green monkey kidney) cells with a fibroblast morphology as previously described. MDBK and CV-1 cells were the kind gift of Dr. Robert Lamb (Northwestern University). Cells were infected with virus diluted in DMEM supplemented with 10% bovine serum albumin (BSA) for 1 h or mock infected with media alone. Following incubation, cells were washed with phosphate-buffered saline (PBS) and cultured in DMEM supplemented with 2% heat-inactivated (HI) FBS.
Chalcone treatments were performed in DMEM supplemented with 10% HI FBS at the indicated concentrations and for indicated periods of time. Chalcone stocks were reconstituted in 100% dimethyl sulfoxide (DMSO) at a concentration of 10 mM and were serially diluted to working concentrations in DMSO. DMSO control treatments to test the effect of the vehicle were performed at volumes corresponding to the volume of chalcone added during each experiment (i.e., 1 µL chalcone DMSO solution/1 mL DMEM [10 µM] utilized alongside the DMSO control of 1 µL/1 mL DMEM). For cytotoxicity assays, untreated controls were subtracted from DMSO and chalcone sample values to account for the background signal.
For cytotoxicity assays, cells were stained with propidium iodide (PI) at a dilution of 1:100. Cell viability was determined via flow cytometry using the CytoFLEX (Beckman Coulter, Brea, CA, USA). CytExpert software (Beckman Coulter, version 2.4) was used to analyze independent events. PIV5 infection was monitored using flow cytometry via the FITC channel by analyzing GFP expression of individual cells. ZIKV infection was monitored utilizing Flavivirus group antigen–antibody (D1-4G2-4-15; Novus Biologicals, Littleton, CO, USA) staining for the ZIKV envelope protein. Cells were fixed and permeabilized using eBioscience Intracellular Fixation and Permeabilization Buffer (Invitrogen, Thermo Fisher Scientific, MA, USA) according to the manufacturer’s instructions. Secondary staining was performed using an anti-Alexa Fluor 488 (AF488) antibody (Invitrogen, Thermo Fisher Scientific, MA, USA). OC43 infection was monitored utilizing a primary antibody targeted toward the OC43 nucleocapsid protein (NP, MAB9013, Sigma-Aldrich, St. Louis, MO, USA). Secondary staining was performed using an AF488 antibody. Cells were fixed and permeabilized as previously described. LACV infection was monitored utilizing an anti-LACV Gc 807.31ab antibody kindly provided by Andrew Pekosv. Secondary staining was performed using an AF488 antibody. Cells were fixed and permeabilized as previously described.
To measure the effect of chalcone treatment on PIV5 virus growth, Hs27 cells were infected with PIV5-GFP. This engineered negative sense single-stranded RNA virus expresses GFP, which serves as a genome-encoded protein readout. After entering a cell, PIV5 must first undergo primary transcription to convert its genome into mRNA. As genome replication begins, nascent genomes then become templates for further conversion to mRNA and viral gene expression becomes amplified in a process called secondary transcription. For viral proteins to be detectable in cell culture, this amplification must first take place, making the expression of GFP a direct indicator of whether secondary transcription has successfully occurred. […] As shown in the representative data in Figure 4A, ~82% of DMSO-treated PIV5-GFP infected cells were positive for GFP expression. This was reduced to ~2% GFP-positive cells after treatment with 8o. […] These chalcones were therefore selected for further screening for cytotoxicity.
The GFP IC50 was defined as the concentration of chalcone required to inhibit the GFP expression (as measured via flow cytometry) by 50% when compared to DMSO-treated cells. […]

[2] = test system: Hs27 cells; experiment: 48 h MTS growth inhibition assay in Hs27 cells; type: cell-based, human; details: for EC50: Homo sapiens, HS27, 48 h, read-out: Hs27 48 h EC50; for Hs27 48 h EC10: highest concentration giving 90% relative new cell growth after 48 h, 0.5% DMSO
Description: A cell growth assay using the MTS reagent was conducted to assess the general toxicity of each chalcone compound. […] Experiments were conducted in triplicate. In a typical experiment, there are two plates. The first is the control plate, which allows one to assess the starting cell population on the day of drug addition (Day 0). The second plate is the test plate where cells are plated and tested with different drug concentrations on Day 0. For example, either CHO cells or Hs27 cells were plated in a 200 µL volume at 1000 cells/well on both the control and test plates and incubated overnight to allow the cells to adhere. On Day 0, 1 μL of PBS was added to the control plate wells so that their total volume was 201 μL. MTS reagent (Promega Cell Titer 96 Aqueous non-radioactive cell proliferation reagent, Promega, Madison, WI, USA) was added (20 μL) to each well on the control plate, and that plate was incubated for 4 h in a 5% CO2 atmosphere at 37 °C and then read on the plate reader.
On Day 0, 1 μL of a 200× stock solution of each chalcone was added to the respected well on the test plate, and each condition was tested in triplicate. Drug solutions were prepared in advance in 100% DMSO and dosed so that the final DMSO concentration was 0.5%. For example, 1 μL of chalcone solution was added to the cells plated in each well in 200 μL of media. Of note, the respective chalcone addition occurred after an initial overnight incubation of each cell line in each well to reach Day 0 (the drugging day). After the chalcone was added, the cells were incubated in 5% CO2 for 48 h at 37 °C. After 48 h, the MTS reagent (Promega, Madison, WI, USA) was added (20 μL), and the test plates were incubated for an additional 4 h, and then, absorbance at 490 nm was measured on a BioTek Synergy MX plate reader. […] IC50 values were determined from the corresponding plot of relative absorbance at 490 nm vs. the drug concentration.
For highly colored materials like the chalcones, it is important to consider the contribution of the compound’s own absorbance to the MTS assay. To correct for the absorbance contribution of the chalcone itself, we measured each chalcone’s absorbance (Chalcone Abs) at 490 nm at the respective concentration (e.g., 10 µM) and subtracted the absorbance of the media background (blank Abs). This net value was then subtracted out of the Day 2 absorbance value to provide the % relative growth via the following equation:(1) % Relative Growth = (Day 2 Abs−Day 2 blank Abs)−Chalcone Abs−blank Abs−(Day 0 Abs−Day 0 blank Abs)/(Day 2 Control Abs −Day 2 blank Abs)−(Day 0 Abs−Day 0 blank Abs) ×100%
With the chalcones in hand, we then evaluated their growth-inhibition properties in Chinese hamster ovary (CHO-K1) cells and human Hs27 fibroblast cells.

[3] = low MOI (0.1 in Figure 7), read at 96 hpi

SMILES	Ability to reduce viral GFP expression (Figure 4B screen) ([1]; MOI 10, 24 hpi)	Inhibition of GFP expression, pre-infection treatment only ([1]; MOI 10, 24 hpi)	EC50 [2]	Hs27 48 h EC10 [2]	further results
CCOc1ccc(Cl)cc1/C=C/C(=O)c1c(O)cccc1OCc1ccccc1 [Chalcone 8p]	most notable performance	no significant inhibition of GFP expression	19.3 ± 1.9 µM	8.7 ± 0.7 µM	GFP-positive cells, chalcone added at 0 or 6 hpi ([1]; MOI 10, read at 42 hpi): ~25%; Effect on number of GFP-positive cells, chalcone added at 18 hpi ([1]; MOI 10, read at 42 hpi): no significant effect; GFP-positive cells ([1]; MOI 10, 24 hpi): < 10%; GFP-positive cells, virus spread, chalcone added at 0 and 24 hpi [1, 3]: less than 10%; Inhibition of virus spread, chalcone added at 48 and 72 hpi [1, 3]: inhibition was not seen
CCOc1ccc(Br)cc1/C=C/C(=O)c1c(O)cccc1OCc1ccc(-c2ccccc2)cc1 [Chalcone 8v, (2E)-1-[2-(Biphenyl-4-Ylmethoxy)-6-Hydroxy-Phenyl]3-(5-Bromo-2-Ethoxy-Phenyl)-Propenone]	–	–	18.4 ± 0.9 µM	3.4 ± 0.2 µM	% GFP relative to DMSO treated (10 µM) ([1]; 10 µM): 63.3%
COc1cc(/C=C/C(=O)c2c(O)cccc2OCc2ccccc2)cc(OC)c1OC [Chalcone 8z, (2E)-1-(2-Benzloxy-6-Hydroxy-Phenyl)-3-(3,4,5-Trimethoxy-Phenyl)-Propenone]	most notable performance	–	5 ± 0.2 µM	4.0 ± 0.2 µM	–
COc1ccc(Br)cc1/C=C/C(=O)c1c(O)cccc1OCCC(C)C [Chalcone 8s, (2E)-3-(5-Bromo-2-Methoxy-Phenyl)-1-[2-Hydroxy-6-(3-Methyl-Butoxy)-Phenyl]-Propenone]	most notable performance	–	13.9 ± 0.5 µM	6.9 ± 0.6 µM	–
CCOc1ccc(Br)cc1/C=C/C(=O)c1c(O)cccc1OCc1ccccc1 [Chalcone 8o]	most notable performance	no significant inhibition of GFP expression	13.3 ± 1.1 µM	8.3 ± 0.5 µM	GFP-positive cells, chalcone added at 0 or 6 hpi ([1]; MOI 10, read at 42 hpi): ~25%; Effect on number of GFP-positive cells, chalcone added at 18 hpi ([1]; MOI 10, read at 42 hpi): no significant effect; GFP-positive cells ([1]; MOI 10, 24 hpi): ~ 2% and 2.10% and < 10%; % GFP relative to DMSO treated (10 µM) ([1]; 10 µM): 14.6%; GFP-positive cells, virus spread, chalcone added at 0 and 24 hpi [1, 3]: less than 10%; Inhibition of virus spread, chalcone added at 48 and 72 hpi [1, 3]: inhibition was not seen
COc1ccc(Br)cc1/C=C/C(=O)c1c(O)cccc1OCc1ccccc1 [Chalcone 8l]	most notable performance	–	7.8 ± 0.6 µM	6.1 ± 0.5 µM	–
COc1ccc(Br)cc1/C=C/C(=O)c1c(O)cccc1OCc1ccc(-c2ccccc2)cc1 [Chalcone 8w, (2E)-1-[2-(Biphenyl-4-Ylmethoxy)-6-Hydroxy-Phenyl]3-(5-Bromo-2-Methoxy-Phenyl)-Propenone]	most notable performance	–	8.2 ± 0.5 µM	6.5 ± 0.5 µM	–
COc1ccc(Br)cc1/C=C/C(=O)c1c(O)cccc1OC [Chalcone 8f]	most notable performance	–	2.3 ± 0.2 µM	1.4 ± 0.1 µM	–
COc1ccc(O)cc1/C=C/C(=O)c1c(O)cccc1OCc1ccccc1 [Chalcone 8x, (2E)-1-(2-Benzloxy-6-Hydroxy-Phenyl)-5-(5-Hydroxy-2-Methoxy-Phenyl)-Propenone]	most notable performance	–	3.4 ± 0.3 µM	1.1 ± 0.07 µM	–
COc1ccccc1/C=C/C(=O)c1ccccc1O [Chalcone 8a]	–	no significant inhibition of GFP expression	20.3 ± 2.1 µM	0.6 ± 0.04 µM	GFP-positive cells regardless of time of addition ([1]; 10 µM added at 0, 6 or 18 hpi, MOI 10, read at 42 hpi): ~ 80%; Inhibition of viral gene expression, PIV5 ([1]; 10 µM, Hs27 cells): did not inhibit viral gene expression; GFP-positive cells with increasing concentration ([1]; 2.5, 5, 7.5 or 10 µM before and after infection, MOI 10, 24 hpi): ~ 80%; Effect on number of GFP-positive cells, virus spread, all times of addition ([1]; low MOI (0.1 in Figure 7), 10 µM added at 0, 24, 48 or 72 hpi, read at 96 hpi): modestly reduced

Source: article PMC12467382, “Synthesis and Bioevaluation of Chalcones as Broad-Spectrum Antiviral Compounds Against Single-Stranded RNA Viruses” (Biomolecules, 2025)
